Where a SMILES comes first, the peptide text is derived from it. The star is where a group is joined. Succinyl(4-O-cholesteryl) = CC(C)CCC[C@@H](C)[C@H]1CC[C@H]2[C@@H]3CC=C4C[C@@H](OC(=O)CCC(=O)*)CC[C@]4(C)[C@H]3CC[C@]12C
Test system: RSV A2 virus strain
Experiment: Mouse RSV A2 challenge protection, lung viral titer by plaque method
Assay type: in vivo, BALB/c mice
Details: for Mean (PFU/g lung): BALB/c mice, tracheal nebulization 1 mg/kg QD for 5 days, lung collected 2 h after final administration on Day 4; for effect on viral titer in lung tissue (in words): mice, tracheal nebulization once daily for 5 days
Protocol: Female BALB/c mice were from Shanghai Yishang Biotechnology Co., Ltd. HEp- 2 were from the ATCC, with a catalog number CCL-23. The cells were cultured in a DMEM medium solution in which 10% (v/v) fetal bovine serum and 1% penicillin and streptomycin were added. The RSV A2 virus strain was from the ATCC, with a catalog number VR-1540.
Eight-week-old female BALB/c mice were grouped based on body weight (n=6). All animals were intranasally challenged with RSV on Day 0 at a challenge dosage of 1×10^6 pfu (20 μL) per animal. Administration began 1 h after Day 0 challenge; the polypeptide sample, positive control, and solvent control were administered via tracheal nebulization once daily for 5 consecutive days (see Table 3 below for administration dosage and administration frequency). Lung tissue was collected from all animals 2 h after the final administration on Day 4; left lung tissue was rapidly frozen in a virus protection solution with a 10-fold volume and stored below −70° C.; and a viral titer was detected by using a plaque method.
For analysis, the lung RSV A2 virus was determined by performing a tissue homogenate viral load plaque method. In short, on the day prior to sample detection, the HEp-2 cells were inoculated into a 12-well plate (spreading density being 0.3×10^6 cells/mL, with 1000 μL of cell suspension per well) according to a standard HEp-2 cell culture operation procedure. On the day of incubation, the supernatant was taken from the tissue sample that was homogenized using a tissue homogenizer (maintaining a low-temperature environment), and the supernatant was taken after centrifugation. The tissue homogenate sample was diluted with serum-free DMEM, and inoculated into a 12-well plate at a final volume of 400 μL. After 2 h of incubation, the homogenate supernatant was discarded, and 1.5 mL of a covering layer (cell culture medium containing 1% soft agar) was added to each well and cultured in the incubator for approximately 72 h. The covering layer was discarded, the cells were fixed, blocking was performed by using a blocking solution, dyeing was performed with HRP-RSVG, development and air drying were terminated with pure water. Colored spots on the well plate were counted by using a fluorescent (enzyme-linked) immunoassay spot analyzer, and the viral titer was expressed as a plaque-forming unit per gram of tissue (PFU/g). The viral titer was calculated as an arithmetic mean±standard error of all animals in a group.
One hour after RSV A2 challenge in mice, compounds 13, 14, 17, 19, 20, 21, 26, 27, 28, and 40 were administered via tracheal nebulization once daily for 5 consecutive days; and 2 h after the final administration, lung tissue was collected from all groups for viral plaque detection, and results were shown in Table 3.

Row | Compound | Mean (PFU/g lung) | effect on viral titer in lung tissue (in words)
1 | CC[C@H](C)[C@H](NC(=O)[C@H](CCCCN)NC(=O)[C@H](CCCCN)NC(=O)[C@H](CC(C)C)NC(=O)[C@H](CO)NC(=O)[C@H](CCC(=O)O)NC(=O)[C@H](CCC(=O)O)NC(=O)[C@@H](NC(=O)[C@H](CCCCN)NC(=O)[C@H](CCCCN)NC(=O)[C@H](CC(N)=O)NC(=O)[C@@H](NC(=O)[C@H](CCC(=O)O)NC(=O)[C@H](CCC(=O)O)NC(=O)[C@@H](NC(=O)[C@H](CCCCN)NC(=O)[C@H](CCCCN)NC(=O)[C@H](CC(=O)O)NC(=O)[C@H](Cc1ccccc1)NC(=O)[C@H](CCC(=O)O)NC(=O)[C@H](CC(=O)O)NC(=O)[C@H](Cc1c[nH]c2ccccc12)NC(C)=O)[C@@H](C)CC)C(C)C)[C@@H](C)CC)C(=O)N[C@@H](CCC(=O)O)C(=O)N[C@@H](CCC(=O)O)C(=O)N[C@@H](CO)C(=O)N[C@@H](CC(=O)O)C(=O)N[C@@H](CCCCN)C(=O)N[C@@H](CCCCN)C(=O)N[C@@H](CC(C)C)C(=O)N[C@@H](CCC(=O)O)C(=O)N[C@@H](C)C(=O)N[C@@H](C)C(=O)N[C@@H](C)C(=O)N[C@@H](CCCCN)C(=O)N[C@@H](CCCCNC(=O)CCC(=O)O[C@H]1CC[C@@]2(C)C(=CC[C@H]3[C@@H]4CC[C@H]([C@H](C)CCCC(C)C)[C@@]4(C)CC[C@@H]32)C1)C(N)=O [Compound 13] (Ac-WDEFDKKIEEVNKKIEESLKKIEESDKKLEAAAKK(Succinyl(4-O-cholesteryl))-NH2) | 5380 | significantly reduce the viral titer in lung tissue
2 | CC[C@H](C)[C@H](NC(=O)[C@H](CCCCN)NC(=O)[C@H](CCCCN)NC(=O)[C@H](CC(C)C)NC(=O)[C@H](CO)NC(=O)[C@H](CCC(=O)O)NC(=O)[C@H](CCC(=O)O)NC(=O)[C@@H](NC(=O)[C@H](CCCCN)NC(=O)[C@H](CCCCN)NC(=O)[C@H](CC(N)=O)NC(=O)[C@@H](NC(=O)[C@H](CCC(=O)O)NC(=O)[C@H](CCC(=O)O)NC(=O)[C@@H](NC(=O)[C@H](CCCCN)NC(=O)[C@H](CCCCN)NC(=O)[C@H](CC(=O)O)NC(=O)[C@H](Cc1ccccc1)NC(=O)[C@H](CCC(=O)O)NC(=O)[C@H](CC(=O)O)NC(=O)[C@H](CO)NC(C)=O)[C@@H](C)CC)C(C)C)[C@@H](C)CC)C(=O)N[C@@H](CCC(=O)O)C(=O)N[C@@H](CCC(=O)O)C(=O)N[C@@H](CO)C(=O)N[C@@H](CC(=O)O)C(=O)N[C@@H](CCCCN)C(=O)N[C@@H](CCCCN)C(=O)N[C@@H](CC(C)C)C(=O)NCC(=O)N[C@@H](CO)C(=O)NCC(=O)N[C@@H](CO)C(=O)NCC(=O)N[C@@H](CCCCNC(=O)CCC(=O)O[C@H]1CC[C@@]2(C)C(=CC[C@H]3[C@@H]4CC[C@H]([C@H](C)CCCC(C)C)[C@@]4(C)CC[C@@H]32)C1)C(N)=O [Compound 20] (Ac-SDEFDKKIEEVNKKIEESLKKIEESDKKLGSGSGK(Succinyl(4-O-cholesteryl))-NH2) | 8928 | significantly reduce the viral titer in lung tissue
3 | CC[C@H](C)[C@H](NC(=O)[C@H](CO)NC(=O)[C@H](C)NC(=O)[C@H](CC(=O)O)NC(=O)[C@H](Cc1ccccc1)NC(=O)[C@H](CCC(=O)O)NC(=O)[C@H](CC(=O)O)NC(C)=O)C(=O)N[C@@H](CO)C(=O)N[C@@H](CCC(N)=O)C(=O)N[C@H](C(=O)N[C@@H](CC(N)=O)C(=O)N[C@@H](CCC(=O)O)C(=O)N[C@@H](CCCCN)C(=O)N[C@H](C(=O)N[C@@H](CC(N)=O)C(=O)N[C@@H](CCC(N)=O)C(=O)N[C@@H](CO)C(=O)N[C@@H](CC(C)C)C(=O)N[C@@H](CCC(=O)O)C(=O)N[C@@H](CCC(=O)O)C(=O)N[C@H](C(=O)N[C@@H](CCCNC(=N)N)C(=O)N[C@@H](CCCCN)C(=O)N[C@@H](CO)C(=O)N[C@@H](CC(=O)O)C(=O)N[C@@H](CCC(=O)O)C(=O)N[C@@H](CC(C)C)C(=O)N[C@@H](CC(C)C)C(=O)N[C@@H](Cc1c[nH]cn1)C(=O)N[C@@H](CC(N)=O)C(=O)N[C@@H](CCC(=O)O)C(=O)N[C@@H](C)C(=O)N[C@@H](C)C(=O)N[C@@H](C)C(=O)N[C@@H](CCCCN)C(=O)N[C@@H](CCCCNC(=O)CCC(=O)O[C@H]1CC[C@@]2(C)C(=CC[C@H]3[C@@H]4CC[C@H]([C@H](C)CCCC(C)C)[C@@]4(C)CC[C@@H]32)C1)C(N)=O)[C@@H](C)CC)[C@@H](C)CC)C(C)C [Compound 28] (Ac-DEFDASISQVNEKINQSLEEIRKSDELLHNEAAAKK(Succinyl(4-O-cholesteryl))-NH2) | 8425 | significantly reduce the viral titer in lung tissue
4 | CC[C@H](C)[C@H](NC(=O)[C@H](CCCCN)NC(=O)[C@H](CCCCN)NC(=O)[C@H](CC(C)C)NC(=O)[C@H](CO)NC(=O)[C@H](CCC(=O)O)NC(=O)[C@H](CCC(=O)O)NC(=O)[C@@H](NC(=O)[C@H](CCCCN)NC(=O)[C@H](CCCCN)NC(=O)[C@H](CC(N)=O)NC(=O)[C@@H](NC(=O)[C@H](CCC(=O)O)NC(=O)[C@H](CCC(=O)O)NC(=O)[C@@H](NC(=O)[C@H](CCCCN)NC(=O)[C@H](CCCCN)NC(=O)[C@H](CC(=O)O)NC(=O)[C@H](Cc1ccccc1)NC(=O)[C@H](CCC(=O)O)NC(=O)[C@H](CC(=O)O)NC(=O)[C@H](Cc1c[nH]c2ccccc12)NC(C)=O)[C@@H](C)CC)C(C)C)[C@@H](C)CC)C(=O)N[C@@H](CCC(=O)O)C(=O)N[C@@H](CCC(=O)O)C(=O)N[C@@H](CO)C(=O)N[C@@H](CC(=O)O)C(=O)N[C@@H](CCCCN)C(=O)N[C@@H](CCCCN)C(=O)N[C@@H](CC(C)C)C(=O)N[C@@H](CCC(=O)O)C(=O)N[C@@H](CCC(=O)O)C(=O)N[C@H](C(=O)N[C@@H](CC(N)=O)C(=O)N[C@@H](C)C(=O)N[C@@H](CCC(=O)O)C(=O)N[C@@H](C)C(=O)N[C@@H](C)C(=O)N[C@@H](C)C(=O)N[C@@H](CCCCN)C(=O)N[C@@H](CCCCNC(=O)CCC(=O)O[C@H]1CC[C@@]2(C)C(=CC[C@H]3[C@@H]4CC[C@H]([C@H](C)CCCC(C)C)[C@@]4(C)CC[C@@H]32)C1)C(N)=O)C(C)C [Compound 40] (Ac-WDEFDKKIEEVNKKIEESLKKIEESDKKLEEVNAEAAAKK(Succinyl(4-O-cholesteryl))-NH2) | 5678 | significantly reduce the viral titer in lung tissue
5 | Ac-FDEEISQVNEKINQSLAFIRKSDELLHNVNAGKSTTEAAAKK(Succinyl(4-O-cholesteryl))-NH2 [Compound 26] | 5015 | significantly reduce the viral titer in lung tissue
6 | Ac-WDEFDASISQVNEKINQSLEEIRKSDELLHNVNAGLGSGSGK(Succinyl(4-O-cholesteryl))-NH2 [Compound 27] | 9458 | significantly reduce the viral titer in lung tissue

— patent US20260250325A1, “Antiviral Polypeptide Membrane Fusion Inhibitor, and Preparation Method and Application Thereof” (priority 2025, published 2026)
